In patent US20250354979A1, “DRUG EVALUATION METHOD, REAGENT, AND KIT” (FUJIFILM Corporation, priority 2023, published 2025):

Experiments:
[1] = system: human iPS cell-derived myocardial cells; assay: Heart rate of myocardial cells by MEA extracellular potential, serum-free culture medium without additive; format: cell-based; details: no pretreatment
Procedure: (§1) Reference Example 1: Method and results of evaluating effect on heart rate in a case where muscarinic receptor agonist (carbachol) is added to serum-free culture medium Human iPS cell-derived myocardial cells (iCell myocardial cells 2.0, manufactured by FUJIFILM Cellular Dynamics, Inc.) in a frozen state were thawed, suspended in a thawing culture medium (iCell myocardial cell thawing culture medium, manufactured by FUJIFILM Cellular Dynamics, Inc.), and then seeded at a cell density of 50,000 cells per well on a MEA plate (Cyto View MEA 48, manufactured by Axion BioSystems, Inc.). The seeding density of myocardial cells in the vicinity of the electrode was 2,736 cells/mm^2. […]
(§2) On the day of measurement, the MEA plate on which the human iPS cell-derived myocardial cells were cultured was placed in an MEA system (Maestro Pro, manufactured by Axion BioSystems, Inc.), and the extracellular potential was measured after 20 minutes (medium control, carbachol concentration: 0 μmol/L). Subsequently, 0.01 μmol/L of carbachol (manufactured by Tokyo Chemical Industry Co., Ltd.) was added to the MEA plate, and then the extracellular potential was measured after 20 minutes from the addition. Similarly, carbachol was added to give concentrations of 0.1 μmol/L, 1 μmol/L, and 10 μmol/L, and then the extracellular potential was measured at each concentration after 20 minutes from the addition. […]

[2] = system: human iPS cell-derived myocardial cells; assay: Heart rate of myocardial cells by MEA, maintenance culture medium containing serum; format: cell-based
From the text: as §1, with “Comparative” for “Reference”, “decrease in” for “effect on”, “by” for “in a case where”, “using maintenance” for “is added to serum-free”, “2,798” for “2,736”
as §2, with “concentration.” for “concentration after 20 minutes from the addition.”

Structure (SMILES)	increase in heart rate ([1]; atropine 0.01-1 μmol/L)	increase in heart rate ([2]; atropine 0.01-1 μmol/L)	decrease in heart rate ([1]; carbachol 0.01-10 μmol/L, 20 minutes after each addition, vs medium control)	decrease in heart rate ([2]; carbachol 0.01-10 μmol/L)
CN1[C@@H]2CC[C@H]1C[C@@H](OC(=O)C(CO)c1ccccc1)C2 (stereo partly shown) [atropine]	No clear increase in heart rate	No clear increase in heart rate	–	–
C[N+](C)(C)CCOC(N)=O [carbachol]	–	–	up to 15%	No clear decrease in heart rate
